Results taken from patent publication US11479551B2, “MTA-cooperative PRMT5 inhibitors” (Mirati Therapeutics, Inc., priority 2019, dated 2022).
Read-outs that look alike come from different tables or passages of the source.

Target: PRMT5/MEP50 complex (Homo sapiens (Human), UniProt O14744)
Assay: PRMT5:MEP50 FlashPlate Assay (histone H4 peptide substrate, plus and minus MTA)
Type: biochemical
Experimental: The PRMT5 inhibitory activity of compounds of the present invention was determined using either a PRMT5:MEP50 FlashPlate Assay (Reaction Biology Corporation) or a PRMT5:MEP50 HotSpot Assay (Reaction Biology Corporation).
1. PRMT5:MEP50 FlashPlate Assay

[1] = IC50 + 2 μM MTA (nM), in the presence of 2 μM MTA
[2] = in the absence of MTA, read-out: IC50

Chain of PRMT5/MEP50 complex (O14744 2-637): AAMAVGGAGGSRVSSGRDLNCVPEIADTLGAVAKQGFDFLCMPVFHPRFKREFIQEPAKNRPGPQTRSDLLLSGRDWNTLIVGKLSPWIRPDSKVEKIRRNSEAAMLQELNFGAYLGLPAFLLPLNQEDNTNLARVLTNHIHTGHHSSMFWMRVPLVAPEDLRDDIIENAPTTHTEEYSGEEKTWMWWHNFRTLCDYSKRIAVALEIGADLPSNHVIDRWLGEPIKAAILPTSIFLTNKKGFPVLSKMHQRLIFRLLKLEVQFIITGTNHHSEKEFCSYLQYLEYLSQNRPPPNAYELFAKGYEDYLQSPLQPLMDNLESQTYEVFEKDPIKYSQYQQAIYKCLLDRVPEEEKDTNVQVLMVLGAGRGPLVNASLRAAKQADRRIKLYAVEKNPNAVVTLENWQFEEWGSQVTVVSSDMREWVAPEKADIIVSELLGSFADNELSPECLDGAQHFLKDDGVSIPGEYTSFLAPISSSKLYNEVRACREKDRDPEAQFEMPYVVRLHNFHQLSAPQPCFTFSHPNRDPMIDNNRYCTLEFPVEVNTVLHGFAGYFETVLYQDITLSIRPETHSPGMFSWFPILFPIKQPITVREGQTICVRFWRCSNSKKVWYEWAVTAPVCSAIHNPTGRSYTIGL
Chain of PRMT5/MEP50 complex (Q9BQA1 2-342 partner): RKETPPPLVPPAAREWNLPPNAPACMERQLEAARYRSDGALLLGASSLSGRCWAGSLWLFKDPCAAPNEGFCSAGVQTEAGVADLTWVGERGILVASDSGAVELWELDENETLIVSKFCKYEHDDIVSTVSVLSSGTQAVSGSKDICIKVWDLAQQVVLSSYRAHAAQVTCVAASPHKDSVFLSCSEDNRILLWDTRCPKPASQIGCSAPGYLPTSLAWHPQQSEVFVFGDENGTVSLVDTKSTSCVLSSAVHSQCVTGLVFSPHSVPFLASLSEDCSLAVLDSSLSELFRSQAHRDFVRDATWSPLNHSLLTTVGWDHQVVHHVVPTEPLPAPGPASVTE

| Compound | IC50 [1] [nM] | IC50 [2] [nM] |
| --- | --- | --- |
| NCc1n[nH]c(=O)c2ccc(-c3cncc(C(F)(F)F)c3)cc12 [Example 3-43, 4-(aminomethyl)-6-(5-(trifluoromethyl)pyridin-3-yl)phthalazin-1(2H)-one] | 340 | 6500 |
| NCc1n[nH]c(=O)c2ccc(-c3cncc(O)c3)cc12 [Example 3-44, 4-(aminomethyl)-6-(5-hydroxypyridin-3-yl)phthalazin-1(2H)-one] | 1200 | 19400 |
| COc1cncc(-c2ccc3c(=O)[nH]nc(CN)c3c2)c1 [Example 3-45, 4-(aminomethyl)-6-(5-methoxypyridin-3-yl)phthalazin-1(2H)-one] | 370 | 6810 |
| COCc1cncc(-c2ccc3c(=O)[nH]nc(CN)c3c2)c1 [Example 3-46, 4-(aminomethyl)-6-(5-(methoxymethyl)pyridin-3-yl)phthalazin-1(2H)-one] | 570 | 7880 |
| NCc1n[nH]c(=O)c2ccc(-c3cncc(CO)c3)cc12 [Example 3-47, 4-(aminomethyl)-6-(5-(hydroxymethyl)pyridin-3-yl)phthalazin-1(2H)-one] | 56 | 2950 |
| CS(=O)(=O)c1cncc(-c2ccc3c(=O)[nH]nc(CN)c3c2)c1 [Example 3-48, 4-(aminomethyl)-6-(5-(methylsulfonyl)pyridin-3-yl)phthalazin-1(2H)-one] | 280 | 7980 |
| CCOc1cncc(-c2ccc3c(=O)[nH]nc(CN)c3c2)c1 [Example 3-49, 4-(aminomethyl)-6-(5-ethoxypyridin-3-yl)phthalazin-1(2H)-one] | 110 | 3850 |
| NCc1n[nH]c(=O)c2ccc(-c3cncc(OC(F)F)c3)cc12 [Example 3-51, 4-(aminomethyl)-6-(5-(difluoromethoxy)pyridin-3-yl)phthalazin-1(2H)-one] | 500 | 11100 |
| CC(C)Oc1cncc(-c2ccc3c(=O)[nH]nc(CN)c3c2)c1 [Example 3-52, 4-(aminomethyl)-6-(5-isopropoxypyridin-3-yl)phthalazin-1(2H)-one] | 370 | 3000 |
| NCc1n[nH]c(=O)c2ccc(-c3cncc(OCC4CC4)c3)cc12 [Example 3-53, 4-(aminomethyl)-6-(5-(cyclopropylmethoxy)pyridin-3-yl)phthalazin-1(2H)-one] | 28 | 1350 |
| NCc1n[nH]c(=O)c2ccc(-c3cncc4ccccc34)cc12 [Example 3-54, 4-(aminomethyl)-6-(isoquinolin-4-yl)phthalazin-1(2H)-one] | 64 | 1290 |
| NCc1n[nH]c(=O)c2ccc(-c3cncc4[nH]ccc34)cc12 [Example 3-55, 4-(aminomethyl)-6-(1H-pyrrolo[2,3-c]pyridin-4-yl)phthalazin-1(2H)-one] | 83 | 1870 |
| Cc1c(Cl)cncc1-c1ccc2c(=O)[nH]nc(CN)c2c1 [Example 3-56, 4-(aminomethyl)-6-(5-chloro-4-methylpyridin-3-yl)phthalazin-1(2H)-one] | 550 | 11500 |
| NCc1n[nH]c(=O)c2ccc(-c3nncn3Cc3ccccc3)cc12 [Example 3-57, 4-(aminomethyl)-6-(4-benzyl-4H-1,2,4-triazol-3-yl)phthalazin-1(2H)-one] | 30000 | – |
| NCc1n[nH]c(=O)c2ccc(-c3cncc(N4CCOCC4)c3)cc12 [Example 3-58, 4-(aminomethyl)-6-(5-morpholinopyridin-3-yl)phthalazin-1(2H)-one] | 510 | 8070 |
| Cc1ccccc1-c1ccc2c(=O)[nH]nc(CN)c2c1 [Example 3-60, 4-(aminomethyl)-6-(o-tolyl)phthalazin-1(2H)-one] | 8100 | > 100000 |
| CC(C)c1c[nH]c2ncc(-c3ccc4c(=O)[nH]nc(CN)c4c3)cc12 [Example 3-61, 4-(aminomethyl)-6-(3-isopropyl-1H-pyrrolo[2,3-b]pyridin-5-yl)phthalazin-1(2H)-one] | 3.4 | 80 |

Other lines, results leading:

| IC50 [1] [nM] | IC50 [2] [nM] | Compound |
| --- | --- | --- |
| 45000 | > 100000 | NCc1n[nH]c(=O)c2ccc(-c3cccnn3)cc12 [Example 4-1, 4-(aminomethyl)-6-(pyridazin-3-yl)phthalazin-1(2H)-one] |
| 490 | 13800 | NCc1n[nH]c(=O)c2ccc(-c3cnsc3)cc12 [Example 4-2, 4-(aminomethyl)-6-(isothiazol-4-yl)phthalazin-1(2H)-one] |
| 37 | 926 | NCc1n[nH]c(=O)c2ccc(-c3cnc4ccccn34)cc12 [Example 4-3, 4-(aminomethyl)-6-(imidazo[1,2-a]pyridin-3-yl)phthalazin-1(2H)-one] |
| 230 | 5910 | Cc1ncc(-c2ccc3c(=O)[nH]nc(CN)c3c2)n1C [Example 4-4, 4-(aminomethyl)-6-(1,2-dimethyl-1H-imidazol-5-yl)phthalazin-1(2H)-one] |
| 150 | 1730 | Cc1c(-c2ccc3c(=O)[nH]nc(CN)c3c2)cncc1C1CC1 [Example 4-5, 4-(aminomethyl)-6-(5-cyclopropyl-4-methylpyridin-3-yl)phthalazin-1(2H)-one] |
| 8400 | > 100000 | N#Cc1ncccc1-c1ccc2c(=O)[nH]nc(CN)c2c1 [Example 4-7, 3-(4-(aminomethyl)-1-oxo-1,2-dihydrophthalazin-6-yl)picolinonitrile] |
| 440 | > 100000 | Cn1ncc(-c2cncc(-c3ccc4c(=O)[nH]nc(CN)c4c3)c2)c1C#N [Example 4-8, 4-(5-(4-(aminomethyl)-1-oxo-1,2-dihydrophthalazin-6-yl)pyridin-3-yl)-1-methyl-1H-pyrazole-5-carbonitrile] |
| 590 | 16000 | NCc1n[nH]c(=O)c2ccc(-c3cncc(OC(F)(F)F)c3)cc12 [Example 4-9, 4-(aminomethyl)-6-(5-(trifluoromethoxy)pyridin-3-yl)phthalazin-1(2H)-one] |
| 1000 | > 100000 | N#Cc1ccn(-c2cncc(-c3ccc4c(=O)[nH]nc(CN)c4c3)c2)n1 [Example 4-10, 1-(5-(4-(aminomethyl)-1-oxo-1,2-dihydrophthalazin-6-yl)pyridin-3-yl)-1H-pyrazole-3-carbonitrile] |
| 110 | 2400 | CN1CCn2ncc(-c3ccc4c(=O)[nH]nc(CN)c4c3)c2C1 [Example 4-11, 4-(aminomethyl)-6-(5-methyl-4,5,6,7-tetrahydropyrazolo[1,5-a]pyrazin-3-yl)phthalazin-1(2H)-one] |
| 7400 | > 100000 | NCc1n[nH]c(=O)c2ccc(-c3cncc4nccn34)cc12 [Example 4-12, 4-(aminomethyl)-6-(imidazo[1,2-a]pyrazin-5-yl)phthalazin-1(2H)-one] |
| 210 | 2560 | NCc1n[nH]c(=O)c2ccc(-c3cncn4cccc34)cc12 [Example 4-13, 4-(aminomethyl)-6-(pyrrolo[1,2-c]pyrimidin-4-yl)phthalazin-1(2H)-one] |
| 7900 | > 100000 | Cc1nc2ccc(Cl)nn2c1-c1ccc2c(=O)[nH]nc(CN)c2c1 [Example 4-14, 4-(aminomethyl)-6-(6-chloro-2-methylimidazo[1,2-b]pyridazin-3-yl)phthalazin-1(2H)-one] |
| 260 | 3870 | N#Cc1ccc2ncc(-c3ccc4c(=O)[nH]nc(CN)c4c3)n2c1 [Example 4-15, 3-(4-(aminomethyl)-1-oxo-1,2-dihydrophthalazin-6-yl)imidazo[1,2-a]pyridine-6-carbonitrile] |
| 150 | 2050 | Cc1ccc2ncc(-c3ccc4c(=O)[nH]nc(CN)c4c3)n2n1 [Example 4-17, 4-(aminomethyl)-6-(6-methylimidazo[1,2-b]pyridazin-3-yl)phthalazin-1(2H)-one] |
| 280 | 4420 | NCc1n[nH]c(=O)c2ccc(-c3cnc4ccc(Cl)nn34)cc12 [Example 4-18, 4-(aminomethyl)-6-(6-chloroimidazo[1,2-b]pyridazin-3-yl)phthalazin-1(2H)-one] |
| 380 | > 100000 | COc1ccn2c(-c3ccc4c(=O)[nH]nc(CN)c4c3)cnc2c1 [Example 4-19, 4-(aminomethyl)-6-(7-methoxyimidazo[1,2-a]pyridin-3-yl)phthalazin-1(2H)-one] |
| 47 | 1020 | Cc1ccc2ncc(-c3ccc4c(=O)[nH]nc(CN)c4c3)n2c1 [Example 4-20, 4-(aminomethyl)-6-(6-methylimidazo[1,2-a]pyridin-3-yl)phthalazin-1(2H)-one] |
| 70 | 1970 | NCc1n[nH]c(=O)c2ccc(-c3cnc4ccc(F)cn34)cc12 [Example 4-21, 4-(aminomethyl)-6-(6-fluoroimidazo[1,2-a]pyridin-3-yl)phthalazin-1(2H)-one] |
| 370 | 8680 | NCc1n[nH]c(=O)c2ccc(-c3cnc4c(F)cccn34)cc12 [Example 4-22, 4-(aminomethyl)-6-(8-fluoroimidazo[1,2-a]pyridin-3-yl)phthalazin-1(2H)-one] |
| > 100000 | > 100000 | Cc1nc2cnccn2c1-c1ccc2c(=O)[nH]nc(CN)c2c1 [Example 4-23, 4-(aminomethyl)-6-(2-methylimidazo[1,2-a]pyrazin-3-yl)phthalazin-1(2H)-one] |
| 840 | 13400 | Cc1cn2c(-c3ccc4c(=O)[nH]nc(CN)c4c3)cnc2cn1 [Example 4-24, 4-(aminomethyl)-6-(6-methylimidazo[1,2-a]pyrazin-3-yl)phthalazin-1(2H)-one] |
| 1700 | > 100000 | NCc1n[nH]c(=O)c2ccc(-c3cnc4cnccn34)cc12 [Example 4-25, 4-(aminomethyl)-6-(imidazo[1,2-a]pyrazin-3-yl)phthalazin-1(2H)-one] |
| 130 | 1730 | NCc1n[nH]c(=O)c2ccc(-c3cnc4cccnn34)cc12 [Example 4-26, 4-(aminomethyl)-6-(imidazo[1,2-b]pyridazin-3-yl)phthalazin-1(2H)-one] |
